Results reported in publication PMC6138237, “Machine intelligence decrypts β-lapachone as an allosteric 5-lipoxygenase inhibitor” (Chemical Science, 2018).
Where two headings read alike, the source gives them in different places.

Columns and labels:
12-LO = biological target: T1, 12-LO (Homo sapiens, UniProt P18054); assay: 12-LO inhibition in intact human neutrophils
T1 sequence (P18054 1-663): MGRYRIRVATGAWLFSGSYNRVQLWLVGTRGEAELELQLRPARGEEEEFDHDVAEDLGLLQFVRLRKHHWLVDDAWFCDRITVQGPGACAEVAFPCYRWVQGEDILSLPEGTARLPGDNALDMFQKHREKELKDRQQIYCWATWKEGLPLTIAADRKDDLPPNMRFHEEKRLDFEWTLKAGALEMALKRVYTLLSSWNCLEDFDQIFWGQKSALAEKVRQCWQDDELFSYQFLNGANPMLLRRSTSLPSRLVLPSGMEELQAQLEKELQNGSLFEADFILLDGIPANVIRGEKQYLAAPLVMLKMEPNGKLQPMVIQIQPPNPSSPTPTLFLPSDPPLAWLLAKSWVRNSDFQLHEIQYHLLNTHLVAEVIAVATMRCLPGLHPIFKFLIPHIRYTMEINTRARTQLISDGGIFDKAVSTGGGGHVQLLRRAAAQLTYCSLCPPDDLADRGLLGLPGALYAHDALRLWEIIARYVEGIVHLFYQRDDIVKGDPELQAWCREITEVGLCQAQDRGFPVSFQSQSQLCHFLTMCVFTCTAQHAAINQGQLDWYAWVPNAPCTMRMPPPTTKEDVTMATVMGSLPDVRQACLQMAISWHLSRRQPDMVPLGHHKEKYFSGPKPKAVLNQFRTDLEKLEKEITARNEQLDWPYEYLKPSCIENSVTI

EP1 = biological target: T2, EP1 (Homo sapiens, UniProt P34995); assay: EP1 functional agonist assay, Cerep (intracellular Ca2+)
T2 sequence (P34995 1-402): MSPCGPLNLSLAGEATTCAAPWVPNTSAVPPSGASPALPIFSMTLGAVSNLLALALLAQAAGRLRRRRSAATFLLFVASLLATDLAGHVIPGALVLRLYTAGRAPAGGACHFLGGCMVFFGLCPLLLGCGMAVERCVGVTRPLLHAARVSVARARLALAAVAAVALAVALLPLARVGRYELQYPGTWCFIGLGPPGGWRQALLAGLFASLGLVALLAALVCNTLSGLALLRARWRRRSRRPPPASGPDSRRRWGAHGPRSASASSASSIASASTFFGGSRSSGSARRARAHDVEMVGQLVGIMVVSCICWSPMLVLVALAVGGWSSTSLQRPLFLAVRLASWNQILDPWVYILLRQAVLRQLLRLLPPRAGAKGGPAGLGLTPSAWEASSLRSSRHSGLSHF

EphA3 = biological target: T3, EphA3 (Homo sapiens, UniProt P29320); assay: ExpresS Diversity Kinase Profile, Cerep (LANCE): EphA3; type: biochemical
T3 sequence (P29320 21-983): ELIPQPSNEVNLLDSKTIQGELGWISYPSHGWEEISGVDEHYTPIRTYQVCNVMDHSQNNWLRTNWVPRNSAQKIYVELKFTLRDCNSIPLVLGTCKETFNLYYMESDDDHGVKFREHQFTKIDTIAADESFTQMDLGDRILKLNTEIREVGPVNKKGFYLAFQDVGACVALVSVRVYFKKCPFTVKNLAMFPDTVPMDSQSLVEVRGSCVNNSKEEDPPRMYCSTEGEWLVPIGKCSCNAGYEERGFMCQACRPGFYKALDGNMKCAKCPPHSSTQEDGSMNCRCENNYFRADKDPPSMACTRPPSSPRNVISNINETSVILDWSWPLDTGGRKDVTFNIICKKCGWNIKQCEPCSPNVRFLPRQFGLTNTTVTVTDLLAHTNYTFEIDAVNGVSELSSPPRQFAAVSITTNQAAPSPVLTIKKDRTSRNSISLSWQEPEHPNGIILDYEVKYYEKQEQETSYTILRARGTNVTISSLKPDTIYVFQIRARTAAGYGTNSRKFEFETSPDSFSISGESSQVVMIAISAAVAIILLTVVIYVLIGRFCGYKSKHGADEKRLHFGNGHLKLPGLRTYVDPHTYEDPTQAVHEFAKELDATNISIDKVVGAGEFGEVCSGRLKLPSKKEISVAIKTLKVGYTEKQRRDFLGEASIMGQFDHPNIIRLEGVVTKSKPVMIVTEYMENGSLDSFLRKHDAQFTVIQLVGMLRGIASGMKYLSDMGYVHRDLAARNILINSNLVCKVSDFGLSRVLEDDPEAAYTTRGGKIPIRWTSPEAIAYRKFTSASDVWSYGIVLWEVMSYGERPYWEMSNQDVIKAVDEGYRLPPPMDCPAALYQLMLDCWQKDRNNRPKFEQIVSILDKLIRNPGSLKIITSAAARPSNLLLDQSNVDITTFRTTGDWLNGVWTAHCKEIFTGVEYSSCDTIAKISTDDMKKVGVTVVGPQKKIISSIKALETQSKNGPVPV

Abl = Abl (Homo sapiens, UniProt P00519); assay: ExpresS Diversity Kinase Profile, Cerep (LANCE): Abl; type: biochemical
[1] = n = 2, read-out: % Inhibition of control values, Mean
[2] = read-out: % Inhibition of control values, 1st measurement
[3] = read-out: % Inhibition of control values, 2nd measurement

Sequence of Abl (P00519 whole entry): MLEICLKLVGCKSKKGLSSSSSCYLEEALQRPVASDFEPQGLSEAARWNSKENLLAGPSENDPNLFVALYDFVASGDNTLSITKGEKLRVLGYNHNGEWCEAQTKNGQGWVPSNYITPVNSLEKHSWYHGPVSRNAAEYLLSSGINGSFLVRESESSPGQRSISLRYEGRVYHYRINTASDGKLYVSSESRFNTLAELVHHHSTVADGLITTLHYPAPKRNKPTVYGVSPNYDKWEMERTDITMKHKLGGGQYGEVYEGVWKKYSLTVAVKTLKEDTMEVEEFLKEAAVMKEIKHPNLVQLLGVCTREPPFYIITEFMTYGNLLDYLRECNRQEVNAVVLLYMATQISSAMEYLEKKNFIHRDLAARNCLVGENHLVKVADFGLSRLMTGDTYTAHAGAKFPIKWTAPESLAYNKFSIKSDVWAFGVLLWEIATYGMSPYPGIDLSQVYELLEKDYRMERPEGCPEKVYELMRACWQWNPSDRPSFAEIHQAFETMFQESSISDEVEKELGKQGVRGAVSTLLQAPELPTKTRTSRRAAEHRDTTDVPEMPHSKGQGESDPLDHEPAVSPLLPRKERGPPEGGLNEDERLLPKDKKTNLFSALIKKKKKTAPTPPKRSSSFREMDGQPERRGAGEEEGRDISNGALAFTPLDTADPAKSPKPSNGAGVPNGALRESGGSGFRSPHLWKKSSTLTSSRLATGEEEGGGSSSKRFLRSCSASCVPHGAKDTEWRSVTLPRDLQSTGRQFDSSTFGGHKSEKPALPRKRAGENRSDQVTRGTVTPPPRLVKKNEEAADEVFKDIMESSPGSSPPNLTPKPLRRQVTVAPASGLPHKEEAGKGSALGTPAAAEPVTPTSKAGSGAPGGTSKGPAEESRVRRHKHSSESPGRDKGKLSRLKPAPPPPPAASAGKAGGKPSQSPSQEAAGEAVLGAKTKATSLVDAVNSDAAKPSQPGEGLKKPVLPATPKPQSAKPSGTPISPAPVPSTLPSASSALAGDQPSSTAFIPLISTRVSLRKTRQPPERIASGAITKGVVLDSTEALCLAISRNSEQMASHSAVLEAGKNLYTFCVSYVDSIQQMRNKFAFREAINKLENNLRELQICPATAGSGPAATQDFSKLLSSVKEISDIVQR

CC1(C)CCC2=C(O1)c1ccccc1C(=O)C2=O [β-Lapachone]
IC50 (12-LO): > 30 µM
remaining activity at 150 µM (EP1; read-out: % of control values, 1st measurement): -11.9%
remaining activity at 150 µM (EP1; read-out: % of control values, 2nd measurement): -11.9%
remaining activity at 150 µM (EP1; read-out: % of control values, Mean): -11.9%
inhibition at 150 µM (EphA3; [1]): 65.1%
inhibition at 150 µM (EphA3; [2]): 66.8%
inhibition at 150 µM (EphA3; [3]): 63.3%
inhibition at 150 µM (Abl; [1]): 42.4%
inhibition at 150 µM (Abl; [2]): 42.9%
inhibition at 150 µM (Abl; [3]): 41.8%
